Assay: xn = mol fraction of the nth substance listed
Conditions: Liquid; for viscosity: Capillary tube (Ostwald / Ubbelohde) method; for mass density: Vibrating tube method

CCO [ethanol] + O
Conditions | mass density, 523.2 K [kg/m3] | mass density, 573.2 K [kg/m3] | mass density, 618.2 K [kg/m3] | viscosity, 523.2 K [mPa·s] | viscosity, 573.2 K [mPa·s] | viscosity, 618.2 K [mPa·s]
20000 kPa, x1 = 0.1 | 745.9 | 649.3 | 445.3 | 0.12 | 0.085 | 0.054
20000 kPa, x1 = 0.2 | 694.1 | 585.4 | 281.3 | 0.119 | 0.078 | 0.035
20000 kPa, x1 = 0.3 | 653.2 | 534.9 | 250.4 | 0.114 | 0.07 | 0.031
20000 kPa, x1 = 0.4 | 622.3 | 494.9 | 253.1 | 0.109 | 0.065 | 0.032
20000 kPa, x1 = 0.6 | 578.5 | 446.2 | 270.6 | 0.099 | 0.057 | 0.035
20000 kPa, x1 = 0.8 | 550.5 | 426.2 | 295 | 0.092 | 0.054 | 0.038
20000 kPa, x1 = 1 | 533.1 | 421.1 | 314.6 | 0.087 | 0.053 | 0.039
30000 kPa, x1 = 0.1 | 761.6 | 674.8 | 566.3 | 0.126 | 0.088 | 0.072
30000 kPa, x1 = 0.2 | 713.6 | 621.4 | 501.5 | 0.127 | 0.084 | 0.065
30000 kPa, x1 = 0.3 | 676.9 | 582.5 | 460.9 | 0.125 | 0.079 | 0.059
30000 kPa, x1 = 0.4 | 650.7 | 553.5 | 437.4 | 0.119 | 0.075 | 0.057
30000 kPa, x1 = 0.6 | 612.4 | 517.6 | 420.1 | 0.113 | 0.069 | 0.055
30000 kPa, x1 = 0.8 | 588.9 | 499 | 418.9 | 0.107 | 0.067 | 0.055
30000 kPa, x1 = 1 | 573.6 | 491.5 | 423.8 | 0.103 | 0.066 | 0.055
40000 kPa, x1 = 0.1 | 773.2 | 694.9 | 610.3 | 0.132 | 0.093 | 0.081
40000 kPa, x1 = 0.2 | 728.3 | 647.6 | 561 | 0.132 | 0.091 | 0.076
40000 kPa, x1 = 0.3 | 694.7 | 614 | 529.3 | 0.134 | 0.089 | 0.073
40000 kPa, x1 = 0.4 | 671.6 | 587.9 | 509.1 | 0.128 | 0.085 | 0.07
40000 kPa, x1 = 0.6 | 636.3 | 557.4 | 488.2 | 0.124 | 0.08 | 0.067
40000 kPa, x1 = 0.8 | 615.2 | 540.4 | 481.7 | 0.119 | 0.078 | 0.067
40000 kPa, x1 = 1 | 601.3 | 531 | 481.2 | 0.115 | 0.077 | 0.067

From the NIST ThermoML archive (doi:10.1016/j.fluid.2017.09.005)
